From patent publication US3936463A, “Benzomorphanes” (priority 1972, dated 1976)

Tests used:
[1] = tested on: Morphine-dependent rats; assay: Morphine replacement action (elimination of withdrawal symptoms) in morphine-dependent rats; assay type: in vivo, rat; conditions: grade, scale not defined
Experimental: (§1) The numbering of the compounds is the same as the numbering of the preparative examples. […] The ED50 and LD50 were calculated relative to the base.

[2] = tested on: Morphine-dependent monkeys; assay: Morphine-replacement action (elimination of withdrawal symptoms) in morphine-dependent monkeys; assay type: in vivo, monkey; conditions: grade, scale not defined
Experimental: as §1

[3] = in vivo; conditions: rat, sc
Experimental: as §1

[4] = tested on: Morphine-dependent rats; assay: Morphine-antagonistic action (provocation of withdrawal symptoms) in morphine-dependent rats; assay type: in vivo, rat; conditions: grade, scale not defined
Experimental: as §1

[5] = tested on: rat tails; assay: animal or person; conditions: for ED50: Rattus norvegicus, sc, read-out: Analgesic action in heat radiation test on rat tails, ED 50; for Therapeutic index LD 50 / ED 50 / Analgesic action in heat radiation test on rat tails, ED 50: rats, s.c.; for Therapeutic index LD 50 / ED 50: calculated from LD 50 and ED 50; for Analgesic action in heat radiation test on rat tails, ED 50: calculated relative to the base
Experimental: as §1

[6] = tested on: Morphine-dependent monkeys; assay: Morphine-antagonistic action (provocation of withdrawal symptoms) in morphine-dependent monkeys; assay type: in vivo, monkey; conditions: grade, scale not defined
Experimental: as §1

SMILES | Morphine replacement action (elimination of withdrawal symptoms) [1] | Morphine-replacement action (elimination of withdrawal symptoms) [2] | LD50 [3] | Morphine-antagonistic action (provocation of withdrawal symptoms) [4] | ED50 [5] | Therapeutic index LD 50 / ED 50 [5] | Morphine-antagonistic action (provocation of withdrawal symptoms) [6] | Analgesic action in heat radiation test on rat tails, ED 50 [5]
COc1ccc2c3c1O[C@H]1[C@@H](O)C=C[C@H]4[C@@H](C2)N(C)CC[C@@]341 [Codeine, reference compound] | 3 | 3 | 202 mg/kg | 0 | 4.5 mg/kg | 51 |  | 
CCC12CCN(CC3CC3)C(Cc3ccc(OCCCOC(C)=O)cc31)C2C (stereo not drawn) [Example 1, 2-Cyclopropylmethyl-5-ethyl-9-methyl-2'-[3-acetoxypropoxy-(1)]-6,7-benzomorphan] | 0 | 0 | 352 mg/kg | 2 | 0.42 mg/kg | 838 | 1-2 | 
CCC(=O)OCCCOc1ccc2c(c1)C1(CC)CCN(CC3CC3)C(C2)C1C (stereo not drawn) [Example 2a, 2-Cyclopropylmethyl-5-ethyl-9-methyl-2'-[3-propionyloxy-propoxy-(1)]-6,7-benzomorphan] | 0 | 0 | 296 mg/kg | 2 | 0.49 mg/kg | 604 | 2 | 
CCC12CCN(CC3CC3)C(Cc3ccc(OCCCOC(=O)C(C)C)cc31)C2C (stereo not drawn) [Example 2b, 2-Cyclopropylmethyl-5-ethyl-9-methyl-2'-[3-isobutyryloxy-propoxy-(1)]-6,7-benzomorphan] | 0 |  | ~300 mg/kg | 1 | 1 mg/kg | ~ 300 |  | 
CCC12CCN(CC3CC3)C(Cc3ccc(OCCCOC(=O)C(C)(C)C)cc31)C2C (stereo not drawn) [Example 4a, 2-Cyclopropylmethyl-5-ethyl-9-methyl-2'-[3-pivaloyloxy-propoxy-(1)]-6,7-benzomorphan] | 0 |  | > 500 mg/kg | 1 | 0.97 mg/kg | > 515 |  | 
C/C=C/C(=O)OCCCOc1ccc2c(c1)C1(CC)CCN(CC3CC3)C(C2)C1C (stereo not drawn) [Example 4d, 2-Cyclopropylmethyl-5-ethyl-9-methyl-2'-[3-crotonoyloxy-propoxy-(1)]-6,7-benzomorphan] | 0 |  |  | 2 | 0.35 mg/kg |  | 3 | 
CCC12CCN(CC3CC3)C(Cc3ccc(OCCCOC(=O)c4ccccc4)cc31)C2C (stereo not drawn) [Example 4e, 2-Cyclopropylmethyl-5-ethyl-9-methyl-2'-[3-benzoyloxy-propoxy-(1)]-6,7-benzomorphan] |  |  |  |  | 0.42 mg/kg |  | 2 | 
CCC12CCN(CC3CC3)C(Cc3ccc(OCC(C)COC(C)=O)cc31)C2C (stereo not drawn) [Example 6a, 2-Cyclopropylmethyl-5-ethyl-9-methyl-2'-[3-acetoxyisobutoxy-(1)]-6,7-benzomorphan] |  |  |  |  | 0.42 mg/kg |  | 3 | 
C/C=C/C(=O)OCC(C)COc1ccc2c(c1)C1(CC)CCN(CC3CC3)C(C2)C1C (stereo not drawn) [Example 6b, 2-Cyclopropylmethyl-5-ethyl-9-methyl-2'-[3-crotonoyloxyisobutoxy-(1)]-6,7-benzomorphan] |  |  |  |  | 0.31 mg/kg |  | 3 | 
CC(=O)OCCCOc1ccc2c(c1)C1(C)CCN(CC3CC3)C(C2)C1C (stereo not drawn) [Example 7, 2-Cyclopropylmethyl-5,9-dimethyl-2'-[3-acetoxypropoxy-(1)]-6,7-benzomorphan] | 0 |  | ~400 mg/kg | 1 | 1.6 mg/kg | ~ 258 |  | 
CCC(=O)OCCCOc1ccc2c(c1)C1(C)CCN(CC3CC3)C(C2)C1C (stereo not drawn) [Example 8, 2-Cyclopropylmethyl-5-9-dimethyl-2'-[3-propionyloxypropoxy-(1)]-6,7-benzomorphan] | 1 |  | ~425 mg/kg | 1 | 1.6 mg/kg | ~ 262 |  | 
CCC12CCN(CC3CC3)C(Cc3ccc(OCCCCOC(C)=O)cc31)C2C (stereo not drawn) [Example 9, 2-Cyclopropylmethyl-5-ethyl-9-methyl-2'-[4-acetoxybutoxy-(1)]-6,7-benzomorphan] | 0-1 |  | > 500 mg/kg | 1 | 0.61 mg/kg | > 820 |  | 
CCC(=O)OCCCCOc1ccc2c(c1)C1(CC)CCN(CC3CC3)C(C2)C1C (stereo not drawn) [Example 10a] | 0 |  | > 500 mg/kg | 2 | 0.62 mg/kg | > 806 |  | 
CCC12CCN(CC3CC3)C(Cc3ccc(OCCCCOC(=O)C(C)C)cc31)C2C (stereo not drawn) [Example 10b, 2-Cyclopropylmethyl-5-ethyl-9-methyl-2'-[4-isobutyryloxybutoxy-(1)]-6,7-benzomorphan] | 0 |  | > 500 mg/kg | 1 | 0.42 mg/kg | > 1,190 |  | 
CCC12CCN(CC3CC3)C(Cc3ccc(OC(C)(C)COC(C)=O)cc31)C2C (stereo not drawn) [Example 11, 2-Cyclopropylmethyl-5-ethyl-9-methyl-[1-acetoxy-2-methyl-propoxy-(2)]-6,7-benzomorphan] |  |  |  |  | 0.47 mg/kg |  | 1 | 
CCC12CCN(CC3CC3)C(Cc3ccc(OCC(C)CCOC(C)=O)cc31)C2C (stereo not drawn) [Example 17, 2-Cyclopropylmethyl-5-ethyl-9-methyl-2'-[4-acetoxy-2-methylbutoxy-(1)]-6,7-benzomorphan] |  |  |  |  |  |  | 2 | 0.96 mg/kg
CCC(=O)OCCC(C)COc1ccc2c(c1)C1(CC)CCN(CC3CC3)C(C2)C1C (stereo not drawn) [Example 18] |  |  |  |  |  |  | 2 | 1.36 mg/kg
CCC12CCN(CC3CC3)C(Cc3ccc(OCCCOC(=O)c4cccnc4)cc31)C2C (stereo not drawn) [Example 20] |  |  |  |  | 1.2 mg/kg |  | 1 | 
CCC12CCN(CC3CC3)C(Cc3ccc(OCCCOC(=O)COc4ccccc4)cc31)C2C (stereo not drawn) [Example 21a, 2-Cyclopropylmethyl-5-ethyl-9-methyl-2'-[3-phenoxyacetoxypropoxy-(1)]-6,7-benzomorphan] |  |  |  |  | 1.2 mg/kg |  | 2 | 
CCOC(=O)N(C)C(=O)OCCCOc1ccc2c(c1)C1(CC)CCN(CC3CC3)C(C2)C1C (stereo not drawn) [Example 23, 2-cyclopropylmethyl-5-ethyl-9-methyl-2'-[3-N-ethoxycarbonyl-N-methyl-carbamoyloxypropoxy-(1)]-6,7-benzomorphan] |  |  |  |  | 1.2 mg/kg |  | 2 | 
CN1CC[C@]23c4c5ccc(O)c4O[C@H]2[C@@H](O)C=C[C@H]3[C@H]1C5 [Morphine, reference compound] |  |  |  |  |  |  |  | 1.78 mg/kg
CC(C)=CCN1CCC2(C)c3cc(O)ccc3CC1C2C (stereo not drawn) [Pentazocine, reference compound] | 1 |  | 140 mg/kg | 2 | 4.8 mg/kg | 29 | 2 | 
CCOC(=O)C1(c2ccccc2)CCN(C)CC1 [Pethidine, reference compound] |  |  | 113 mg/kg |  | 5.7 mg/kg | 20 |  | 
